Assay results from patent publication US7910559B2, “Decladinosyl-macrolides with anti-inflammatory activity” (GlaxoSmithKline istrazivacki centar Zagreb d.o.o., priority 2005, dated 2011).
Where two headings read alike, the source gives them in different places.

Tests used:
Format in all cases: cell-based
human IL-1β = assay: Inhibition of IL-1β production by stimulated human peripheral blood leukocytes in vitro (ELISA); conditions: Homo sapiens, Leukocyte, PBL, read-out: Percentage of inhibition of IL-1β production; for inhibition at 10 µM: compound 10 μM; for inhibition at 50 µM: compound 50 μM
Experimental: (§1) Substances, used in in vitro experiments, were dissolved in dimethyl sulfoxide (DMSO) (Kemika, Croatia) at concentrations of 50 mM and 10 mM and were further diluted to the final concentrations of […] in 1 mL Dulbecco's modified Eagle medium (DMEM) supplemented with 1% heat inactivated fetal bovine serum (FBS), 1% glutamax, 50 U/ml penicillin, 50 μg/ml streptomycin and 2.5 μg/mL Fungizone (amphotericin B). Media and all media supplements were purchased from Gibco, Australia, except FBS that was from Sigma, USA.
(§2) Peripheral blood leukocytes (PBL) were obtained from venous blood of healthy volunteers by sedimentation on 2% dextran T-500 (Amersham Biosciences, USA) and subsequent centrifugations of leukocyte-rich plasma.
(§3) Peripheral blood leukocytes (PBL), isolated as described above, were seeded in a 48-well plate at a concentration of 3-5×10^6 cell per well in culture medium consisting of RPMI 1640 medium (Institute of Immunology, Croatia) supplemented with 10% heat-inactivated fetal calf serum (FCS, Biowhittaker, USA), 100 U/ml penicillin (Gibco, Australia), 100 μg/ml streptomycin (Gibco, Australia) and 2 mM L-glutamine (Gibco, Australia), and preincubated with the tested compounds for 2 h at 37° C., in an atmosphere of 5% CO2, and 90% humidity. Afterwards, stimuli (Sigma, USA) were added to a final concentration of 2 μg/mL lipopolysaccharide (LPS), 1 μg/mL phorbol 12-myristate 13-acetate (PMA) or 120 μg/mL zymosan. Samples were incubated overnight under conditions described above. At the end of incubation supernatants were transferred to eppendorf tubes and centrifuged for 10 min at 1500 g. Concentrations of human TNF-α, IL-1β, IL-6 and IL-8 were determined in cell supernatants by sandwich ELISA, using capture and detection antibodies (R&D, USA) according to manufacturer's recommendations.
(§4) Inhibition (as percentage) was calculated using the following formula: % inhibition=(1−concentration of cytokines in sample/concentration of cytokines in positive control)×100 where “positive control” refers to stimulated samples not treated with substances.

human TNF-α = assay: Inhibition of TNF-α production by stimulated human peripheral blood leukocytes in vitro (ELISA); conditions: Homo sapiens, Leukocyte, PBL, read-out: Percentage of inhibition of TNF-α production; for inhibition at 10 µM: compound 10 μM; for inhibition at 50 µM: compound 50 μM
Experimental: as §1, §2, §3, §4

human IL-6 = assay: Inhibition of IL-6 production by stimulated human peripheral blood leukocytes in vitro (ELISA); conditions: Homo sapiens, Leukocyte, PBL, read-out: Percentage of inhibition of IL-6 production; for inhibition at 10 µM: compound 10 μM; for inhibition at 50 µM: compound 50 μM
Experimental: as §1, §2, §3, §4

A549 = conditions: human, 24 h
Experimental: (§5) Anti-inflammatory activity of compounds, i.e. observed inhibition of cytokine production and inhibition of proliferation in vitro, is not a consequence of their cytotoxicity.
(§6) Measurement of the succinate dehydrogenase activity in living cells was performed in order to assess the cytotoxicity of compounds of the invention. Cells were cultured for 24 hours in RPMI medium as described above at 37° C., in the presence of the tested compounds at concentrations of 50 μM and 12.5 μM. Afterwards, MTT [3-(4,5-dimethylthiazole-2-yl)-2,5-diphenyl tetrazolium bromide] (Promega, USA) as detection reagent was added and incubated for 0.5-2 hours. The amount of produced MTT-Formazan was determined spectrophotometrically at 490 nm (Mosmann, J. Immunol. Methods, 1983, 65: 55-63).
(§7) Percentage of viable cells was calculated using the following formula: % viable cells=[…]

THP-1 = conditions: human, 24 h
Experimental: as §5, §6, §7

Hep G2 = conditions: human, 24 h
Experimental: as §5, §6, §7

human IL-8 = assay: Inhibition of IL-8 production by stimulated human peripheral blood leukocytes in vitro (ELISA); conditions: Homo sapiens, Leukocyte, PBL, read-out: Percentage of inhibition of IL-8 production; for inhibition at 10 µM: compound 10 μM; for inhibition at 50 µM: compound 50 μM
Experimental: as §1, §2, §3, §4

CC[C@H]1OC(=O)[C@H](C)[C@@H](OC(=O)CCN(C)CCO)[C@H](C)[C@@H](O[C@@H]2O[C@H](C)C[C@H](N(C)C)[C@H]2O)[C@](C)(OC)C[C@@H](C)C(=O)N[C@H](C)[C@@H](O)[C@]1(C)O [Example 23, 6-O-Methyl-3-O-decladinosyl-3-O-{3-[(2-Hydroxy-ethyl)-methyl-amino]-propionyl}-9a-aza-9a-homoerythromycin A]
inhibition at 10 µM (human IL-1β; LPS stimulation): 73%
inhibition at 50 µM (human IL-1β; LPS stimulation): 100%
inhibition at 10 µM (human IL-1β; PMA stimulation): 81%
inhibition at 50 µM (human IL-1β; PMA stimulation): 98%
inhibition at 10 µM (human IL-1β; zymosan stimulation): 70%
inhibition at 50 µM (human IL-1β; zymosan stimulation): 100%
inhibition at 10 µM (human TNF-α; LPS stimulation): 0%
inhibition at 50 µM (human TNF-α; LPS stimulation): 97%
inhibition at 10 µM (human TNF-α; PMA stimulation): 58%
inhibition at 50 µM (human TNF-α; PMA stimulation): 79%
inhibition at 10 µM (human TNF-α; zymosan stimulation): 0%
inhibition at 50 µM (human TNF-α; zymosan stimulation): 96%
inhibition at 10 µM (human IL-6; LPS stimulation): 8%
inhibition at 50 µM (human IL-6; LPS stimulation): 100%
inhibition at 10 µM (human IL-6; PMA stimulation): 51%
inhibition at 50 µM (human IL-6; PMA stimulation): 92%
inhibition at 10 µM (human IL-6; zymosan stimulation): 26%
inhibition at 50 µM (human IL-6; zymosan stimulation): 100%
Percentage of viable cells after treatment (A549; 12.5 μM): 100%
Percentage of viable cells after treatment (A549; 50 μM): >95%
Percentage of viable cells after treatment (THP-1; 12.5 μM): 100%
Percentage of viable cells after treatment (THP-1; 50 μM): 100%
Percentage of viable cells after treatment (Hep G2; 12.5 μM): 100%
Percentage of viable cells after treatment (Hep G2; 50 μM): 100%
inhibition at 10 µM (human IL-8; LPS stimulation): 0%
inhibition at 50 µM (human IL-8; LPS stimulation): 95%
inhibition at 10 µM (human IL-8; PMA stimulation): 0%
inhibition at 50 µM (human IL-8; PMA stimulation): 90%
inhibition at 10 µM (human IL-8; zymosan stimulation): 0%
inhibition at 50 µM (human IL-8; zymosan stimulation): 98%

CC[C@H]1OC(=O)[C@H](C)[C@@H](OC(=O)CCN(CC)CC)[C@H](C)[C@@H](O[C@@H]2O[C@H](C)C[C@H](NC)[C@@H]2O)[C@](C)(OC)C[C@@H](C)C(=O)N[C@H](C)[C@@H](O)[C@]1(C)O [Example 10, 3-O-(3-Diethylamino-propionyl)-3-O-decladinosyl-3′-N-demethyl-6-O-methyl-9a-aza-9a-homoerythromycin A]
inhibition at 10 µM (human IL-1β; LPS stimulation): 70%
inhibition at 50 µM (human IL-1β; LPS stimulation): 88%
inhibition at 10 µM (human IL-1β; PMA stimulation): 80%
inhibition at 50 µM (human IL-1β; PMA stimulation): 94%
inhibition at 10 µM (human IL-1β; zymosan stimulation): 78%
inhibition at 50 µM (human IL-1β; zymosan stimulation): 100%
inhibition at 10 µM (human TNF-α; LPS stimulation): 6%
inhibition at 50 µM (human TNF-α; LPS stimulation): 65%
inhibition at 10 µM (human TNF-α; PMA stimulation): 68%
inhibition at 50 µM (human TNF-α; PMA stimulation): 78%
inhibition at 10 µM (human TNF-α; zymosan stimulation): 10%
inhibition at 50 µM (human TNF-α; zymosan stimulation): 75%
inhibition at 10 µM (human IL-6; LPS stimulation): 35%
inhibition at 50 µM (human IL-6; LPS stimulation): 92%
inhibition at 10 µM (human IL-6; PMA stimulation): 69%
inhibition at 50 µM (human IL-6; PMA stimulation): 92%
inhibition at 10 µM (human IL-6; zymosan stimulation): 40%
inhibition at 50 µM (human IL-6; zymosan stimulation): 100%
Percentage of viable cells after treatment (A549; 12.5 μM): >80%
Percentage of viable cells after treatment (A549; 50 μM): >90%
Percentage of viable cells after treatment (THP-1; 12.5 μM): 100%
Percentage of viable cells after treatment (THP-1; 50 μM): 100%
Percentage of viable cells after treatment (Hep G2; 12.5 μM): 100%
Percentage of viable cells after treatment (Hep G2; 50 μM): 100%
inhibition at 10 µM (human IL-8; LPS stimulation): 13%
inhibition at 50 µM (human IL-8; LPS stimulation): 77%
inhibition at 10 µM (human IL-8; PMA stimulation): 23%
inhibition at 50 µM (human IL-8; PMA stimulation): 76%
inhibition at 10 µM (human IL-8; zymosan stimulation): 6%
inhibition at 50 µM (human IL-8; zymosan stimulation): 82%

C=CC(=O)O[C@H]1[C@H](C)[C@@H](O[C@@H]2O[C@H](C)C[C@H](N(C)C)[C@H]2O)[C@](C)(OC)C[C@@H](C)C(=O)[C@H](C)[C@@H](O)[C@](C)(O)[C@@H](CC)OC(=O)[C@@H]1C [Example 4, 3-O-Propenoyl-3-O-decladinosyl-6-O-methyl-erythromycin A]
inhibition at 10 µM (human IL-1β; LPS stimulation): 75%
inhibition at 50 µM (human IL-1β; LPS stimulation): 100%
inhibition at 10 µM (human IL-1β; PMA stimulation): 97%
inhibition at 50 µM (human IL-1β; PMA stimulation): 100%
inhibition at 10 µM (human IL-1β; zymosan stimulation): 61%
inhibition at 50 µM (human IL-1β; zymosan stimulation): 100%
inhibition at 10 µM (human TNF-α; LPS stimulation): 0%
inhibition at 50 µM (human TNF-α; LPS stimulation): 100%
inhibition at 10 µM (human TNF-α; PMA stimulation): 69%
inhibition at 50 µM (human TNF-α; PMA stimulation): 100%
inhibition at 10 µM (human TNF-α; zymosan stimulation): 0%
inhibition at 50 µM (human TNF-α; zymosan stimulation): 100%
inhibition at 10 µM (human IL-6; LPS stimulation): 37%
inhibition at 50 µM (human IL-6; LPS stimulation): 100%
inhibition at 10 µM (human IL-6; PMA stimulation): 96%
inhibition at 50 µM (human IL-6; PMA stimulation): 100%
inhibition at 10 µM (human IL-6; zymosan stimulation): 55%
inhibition at 50 µM (human IL-6; zymosan stimulation): 100%
Percentage of viable cells after treatment (A549; 12.5 μM): >95%
Percentage of viable cells after treatment (A549; 50 μM): >95%
Percentage of viable cells after treatment (THP-1; 12.5 μM): 100%
Percentage of viable cells after treatment (THP-1; 50 μM): 100%
Percentage of viable cells after treatment (Hep G2; 12.5 μM): >85%
Percentage of viable cells after treatment (Hep G2; 50 μM): >95%
inhibition at 10 µM (human IL-8; LPS stimulation): 29%
inhibition at 50 µM (human IL-8; LPS stimulation): 100%
inhibition at 10 µM (human IL-8; PMA stimulation): 55%
inhibition at 50 µM (human IL-8; PMA stimulation): 90%
inhibition at 10 µM (human IL-8; zymosan stimulation): 10%
inhibition at 50 µM (human IL-8; zymosan stimulation): 100%
